Test results published in patent publication US7432045B2 (priority 2003, dated 2008).
Where two headings read alike, the source gives them in different places. Peptide text beside a SMILES is read from it.

Columns and labels:
HSV-1 KOS = assay: Plaque reduction assay; assay type: cell-based
Method: Cell culture and virus: The procedures for growing Vero cells and preparing high titer stocks of HSV-1 KOS as described in Grau et al., Invest. Ophthal. and Vis. Sci. 30: 2474 (1989) were utilized. Vero cells were maintained in carbonate-buffered DMEM supplemented with 5% calf serum and 5% fetal bovine serum (regular medium). For some studies, cells were switched to serum-free DMEM buffered with 25 mM HEPES (pH 7.4) and allowed to adapt to that medium for 30 min prior to experimental treatments. Vero cells were seeded into wells (0.28 cm^2) of microtiter plates either at 3.5×10^4 cells/well for use 1 day later (8×10^4 cells/well) or at 1×10^4 cells/well for use 3 days later (2×10^5 cells/well).
Plaque reduction assay: Confluent Vero cell cultures in microtiter plates were infected for 1 hour at 37° C. in 40 μL of medium. Except where indicated, peptide treatments in 40 μL of medium lasted from 1 hour before through 1 hour after infection. At the end of the adsorption period, the cultures were re-fed with 100 μL of regular medium. Plaque formation was scored 2 days later and the number of plaques scored per well was normalized to the number counted in the absence of peptide. Using an ocular micrometer, plaque size (π/2×L×S) was determined by measuring the largest plaque diameter (L) and the diameter at a 90° angle to that (S). The size of each of the first 40 scored plaques was measured except when a plaque included less than 10 rounded cells or touched the side of the well.

[1] = MTS assay, eight cell lines; conditions: Vero, HeLa, CV-1PD, TM-1, DP-9, NIKS and W12E cells
hrR3 [2] = assay: Virucidal assay; assay type: cell-based, HSV-1
Method: […] The treated virus was diluted 200-fold with serum-supplemented DMEM and assayed for infectivity approximately 1 hour later in microtiter wells seeded with Vero cells (3.5×10^4 cells/well) 1 d earlier. Forty or 100 microliter volumes of diluted virus were adsorbed for 1 or 2 h at 37° C. and lacZ^+ cells were scored 8 hours later. In some experiments, aliquots of diluted virus were first dialyzed (Spectra/Por; MWCO 12-14,000) overnight at 4° C. against a 60-fold excess volume of Hepes-buffered serum-supplemented DMEM or forced by syringe through 0.22 μm membranes (Millex-GV; Millipore) before the remaining infectious virus was assayed.

HSV-1 KOS virions = assay: Electron microscopy of peptide-treated virus (aggregation)
Method: Electron microscopy: Purified HSV-1 KOS virions (2.5×10^7 pfu/mL) according to Visalli et al., Virus Res. 29:167 (1993) were treated with 25 μM antiviral peptide SEQ ID NO:1 or the control peptide EBX (SEQ ID NO:17) in 40 μL serum-free DMEM buffered with 25 mM Hepes (pH 7.4) for 5 to 60 min at 4 or 23° C. Aliquots (10 μL) were adsorbed to pioloform poly-L-lysine-coated grids for 5 min at 23° C. Grids were rinsed with PBS, stained with 2% phosphotungstic acid (PTA) in water adjusted to pH ˜6, and air dried. Alternatively, virus was pre-adsorbed to grids and treated with peptides thereafter. A total of 4×10^9 pfu/mL of purified HSV-1 KOS in 5 μL PBS was applied to the coated grids for 5 min at 23° C., and the grids were rinsed once with serum-free DMEM buffered with 25 mM Hepes (pH 7.4) and treated with 15 μL of 5 mM EB or EBX in the same medium for 30 min at 37° C. The pH of highly concentrated solutions of antiviral peptide SEQ ID NO:1 and EBX was re-adjusted to 7.4 with NaOH prior to use. To prevent evaporation of the peptide-containing solutions, each grid was held in a Hiraoka flexible staining plate and covered with a miniature bell jar made from an 0.5 mL polypropylene micro-centrifuge tubes, small enough for the 15 μL to fill half of the bell jar facing the coated surface of the grid. The entire assembly was then incubated in a moist chamber for 30 min at 37° C. […]

hrR3 [3] = conditions: read-out: IC50, infection in presence of peptide with peptide treated virions
in vitro = conditions: African green monkey

Compound: CC(C)C[C@H](NC(=O)[C@H](C)NC(=O)[C@H](CC(C)C)NC(=O)[C@H](CC(C)C)NC(=O)[C@@H](NC(=O)[C@H](C)NC(=O)[C@@H]1CCCN1C(=O)[C@H](CC(C)C)NC(=O)[C@H](CC(C)C)NC(=O)[C@H](C)NC(=O)[C@@H](NC(=O)[C@H](C)NC(=O)[C@H](C)NC(=O)[C@H](CCCCN)NC(=O)[C@H](CCCCN)NC(=O)[C@H](CCCNC(=N)N)NC(=O)[C@@H](N)CCCNC(=N)N)C(C)C)C(C)C)C(=O)N[C@@H](CC(C)C)C(=O)N[C@@H](C)C(=O)N1CCC[C@H]1C(=O)O [EB] (H-RRKKAAVALLPAVLLALLAP-OH)
- reduction of mean plaque size (HSV-1 KOS; 25 μM added 1 hour post-infection): 70%
- mean plaque size (HSV-1 KOS; 25 μM added 1 hour post-infection, untreated 66,000±6200): 6900±2600 μm^2
- combined mean plaque size after transient treatments (HSV-1 KOS; 6 and 12 μM, up to 1 hour post-infection): 68,000±11,000 μm^2
- fold lower concentration blocking infections compared to EBX (HSV-1 KOS; absence of serum, FIG. 1B): 100 fold
- IC50 (HSV-1 KOS; absence of serum, FIG. 1B, read-out: antiviral IC50 (plaque formation)): 0.7 µM
- fold lower concentration blocking infections compared to EBX (HSV-1 KOS; presence of serum (FIG. 1A)): 10 fold
- IC50 (HSV-1 KOS; present continuously after infection, read-out: inhibition of plaque expansion IC50): 12 µM
- IC50 (HSV-1 KOS; present continuously starting 1 hour post-infection, read-out: plaque number IC50): 24 µM
- IC50 (HSV-1 KOS; present during infection and 1 hour pre- and post-infection, read-out: plaque number IC50): 5.5 µM
- EC50 [1]: > 100 µM
- reversibility of virion inactivation by overnight dialysis (hrR3 [2]): irreversibly inactivated
- IC50 (hrR3 [2]; 4° C., read-out: Virucidal Activity 4° C. IC50): 89 µM
- IC50 (hrR3 [2]; first experiment, FIG. 8A, read-out: inhibition of infectivity of virions IC50): 44 µM
- IC50 (hrR3 [2]; second experiment, FIG. 8B, read-out: inhibition of infectivity of virions IC50): 69 µM
- aggregation of virus particles (HSV-1 KOS virions; 25 μM peptide): nearly all of the particles were seen in relatively few large aggregates
- time of aggregate formation (HSV-1 KOS virions; room temperature as well as 4° C.): < 5 min
- IC50 (hrR3 [3]; cells pretreated with peptide): 0.9 µM
- IC50 (hrR3 [3]; non-pretreated cells): 1.7 µM
- IC50 (in vitro): 68 µM
